According to patent publication US5143911A, “Antibiotic C-3 di-hydroxyphenyl substituted cephalosporin compounds, compositions and method of use thereof” (Bristol-Myers Squibb Company, priority 1990, dated 1992):
Converted amounts (≈) assume the structure as drawn.

Experiments:
PCresistant S. aureus = experiment: MIC, two-fold serial agar dilution, Mueller-Hinton agar (geometric mean, group Gp-Ib); format: cell-based; details: Staphylococcus aureus, penicillin-resistant S. aureus, 5 strains
Experimental: (§1) For a primary evaluation of some representative compounds of this invention, minimum inhibitory concentrations (MIC's) were determined against 32 strains of test organisms by two-fold serial agar dilution method in Mueller-Hinton agar.
GpIb: PCresistant S. aureus

B. fragilis A 21916 = experiment: In vitro activity against anaerobes (MIC), two-fold serial agar dilution, GAM agar; format: cell-based; details: Bacteroides fragilis, A21916, Gn, Beta-Lactamase(-)
S. aureus Smith [1] = details: Staphylococcus aureus, in Mus musculus, im, read-out: PD50
Ps. aeruginosa (7) = experiment: MIC, two-fold serial agar dilution, Mueller-Hinton agar (geometric mean, group Gn-III); format: cell-based; details: Pseudomonas aeruginosa, 7 strains
Experimental: as §1
GnIII: Ps. aeruginosa (7)

B. fragilis A 22693 = experiment: In vitro activity against anaerobes (MIC), two-fold serial agar dilution, GAM agar; format: cell-based; details: Bacteroides fragilis, A22693, Gn, Beta-Lactamase(-)
B. fragilis A 22695 = experiment: as above; format: cell-based; details: Bacteroides fragilis, A22695, Gn, Beta-Lactamase(+)
E. coli Juhl [2] = experiment: MIC against the infecting organism (Table 2); details: Escherichia coli
B. fragilis A 22533 = experiment: In vitro activity against anaerobes (MIC), two-fold serial agar dilution, GAM agar; format: cell-based; details: Bacteroides fragilis, A22533, Gn, Beta-Lactamase(+)
[3] = system: Penicillin (PC)sensitive S. (5 strains); experiment: MIC, two-fold serial agar dilution, Mueller-Hinton agar (geometric mean, group Gp-Ia); format: cell-based, S. aureus; details: Staphylococcus aureus
Experimental: as §1
Gp-Ia: Penicillin (PC)sensitive S.

P. acnes A 21933 = experiment: In vitro activity against anaerobes (MIC); format: cell-based; details: Cutibacterium acnes, A21933, Gp
E. coli Juhl [4] = details: Escherichia coli, in Mus musculus, im, read-out: PD50
C. perfringens A9635 = experiment: microbe, parasite or virus in culture; format: cell-based; details: Clostridium perfringens
[5] = system: CETresistant E. coli(3), and Kl. pneumoniae(2); experiment: MIC, two-fold serial agar dilution, Mueller-Hinton agar (geometric mean, group Gn-Ib); format: cell-based; details: Escherichia coli, read-out: Geometric Mean of MIC, Gn-Ib
Experimental: as §1
GnIb: CETresistant E. coli(3), and Kl. pneumoniae(2)

P. aeruginosa 9843A = experiment: MIC against the infecting organism (Table 2); details: Pseudomonas aeruginosa
C. difficile A 21675 = experiment: In vitro activity against anaerobes (MIC); format: cell-based; details: Clostridioides difficile, A21675, Gp, Clindamycin-resistant
B. fragilis A 22021 = experiment: In vitro activity against anaerobes (MIC), two-fold serial agar dilution, GAM agar; format: cell-based; details: Bacteroides fragilis, A22021, Gn, Beta-Lactamase(-)
[6] = system: Cephalothin (CET)sensitive E. coli(2), Kl. pneumoniae(1) and Pr. mirabilis(2); experiment: MIC, two-fold serial agar dilution, Mueller-Hinton agar (geometric mean, group Gn-Ia); format: cell-based; details: 5 strains
Experimental: as §1
GnIa: Cephalothin (CET)sensitive E. coli(2)*, Kl. pneumoniae(1) and Pr.

B. fragilis A 22053 = experiment: In vitro activity against anaerobes (MIC), two-fold serial agar dilution, GAM agar; format: cell-based; details: Bacteroides fragilis, A22053, Gn, Beta-Lactamase(-)
[7] = system: M. morganii(1), Ent. cloacae(2), and Ser. marcescens(2); experiment: MIC, two-fold serial agar dilution, Mueller-Hinton agar (geometric mean, group Gn-II); format: cell-based; details: 5 strains
Experimental: as §1
GnII: M. morganii(1), Ent. cloacae(2), and Ser. marcescens(2)

B. fragilis A 22534 = experiment: In vitro activity against anaerobes (MIC), two-fold serial agar dilution, GAM agar; format: cell-based; details: Bacteroides fragilis, A22534, Gn, Beta-Lactamase(+)
B. fragilis CUH-108 = experiment: as above; format: cell-based; details: Bacteroides fragilis, CUH108, Gn, Beta-Lactamase(+), Clindamycin-resistant
Experimental: In vitro activity against anaerobic bacteria was determined on eight strains of B. fragilis by two-fold serial agar dilution method in GAM agar.

S. aureus Smith [8] = experiment: MIC against the infecting organism (Table 2); details: Staphylococcus aureus

CO/N=C(\C(=O)NC1C(=O)N2C(C(=O)O)=C(/C=C/COC(=O)c3ccc(O)c(O)c3)CS[C@H]12)c1nsc(N)n1 (stereo partly shown) [Ib, 7-[(Z)-2-(5-Amino-1,2,4-thiadiazol-3-yl)-2-methoxyiminoacetamido]-3-[(E)-3-(3,4-dihydroxybenzoyloxy)-1-propen-1-yl]-3-cephem-4carboxylic acid]
MIC (PCresistant S. aureus): 3.1 µg/mL (≈ 5.38 µM)
MIC (B. fragilis A 21916): 12.5 µg/mL (≈ 21.7 µM)
ED50 (S. aureus Smith [1]): 0.68 mg/kg
MIC (Ps. aeruginosa (7)): 0.49 µg/mL (≈ 0.85 µM)
MIC (B. fragilis A 22693): 3.1 µg/mL (≈ 5.38 µM)
MIC (B. fragilis A 22695): 25 µg/mL (≈ 43.4 µM)
MIC (E. coli Juhl [2]): 0.1 µg/mL (≈ 0.173 µM)
MIC (B. fragilis A 22533): > 50 µg/mL
MIC [3]: 3.4 µg/mL (≈ 5.9 µM)
MIC (P. acnes A 21933): 0.8 µg/mL (≈ 1.39 µM)
ED50 (E. coli Juhl [4]): 0.037 mg/kg
MIC (C. perfringens A9635): 0.4 µg/mL (≈ 0.694 µM)
MIC [5]: 0.026 µg/mL (≈ 0.0451 µM)
MIC (P. aeruginosa 9843A): 0.4 µg/mL (≈ 0.694 µM)
MIC (C. difficile A 21675): 25 µg/mL (≈ 43.4 µM)
MIC (B. fragilis A 22021): 0.2 µg/mL (≈ 0.347 µM)
MIC [6]: 0.022 µg/mL (≈ 0.0382 µM)
MIC (B. fragilis A 22053): 3.1 µg/mL (≈ 5.38 µM)
MIC [7]: 0.53 µg/mL (≈ 0.919 µM)
MIC (B. fragilis A 22534): > 50 µg/mL
MIC (B. fragilis CUH-108): > 50 µg/mL

CC(C)(O/N=C(\C(=O)NC1C(=O)N2C(C(=O)O)=C(/C=C/COC(=O)c3ccc(O)c(O)c3)CS[C@H]12)c1csc(N)n1)C(=O)O (stereo partly shown) [Ic, 7-[(Z)-2-(2-Aminothiazol-4-yl)-2-(1-carboxy-1-methylethoxyimino)acetamido]-3-[(E)-3-(3,4-dihydroxybenzoyloxy)-1-propen-1yl]-3-cephem-4-carboxylic acid]
MIC (PCresistant S. aureus): 13 µg/mL (≈ 20.1 µM)
MIC (B. fragilis A 21916): 0.8 µg/mL (≈ 1.24 µM)
ED50 (S. aureus Smith [1]): 2.2 mg/kg
MIC (Ps. aeruginosa (7)): 0.82 µg/mL (≈ 1.27 µM)
MIC (B. fragilis A 22693): 3.1 µg/mL (≈ 4.79 µM)
MIC (B. fragilis A 22695): 3.1 µg/mL (≈ 4.79 µM)
MIC (E. coli Juhl [2]): 0.2 µg/mL (≈ 0.309 µM)
MIC (B. fragilis A 22533): > 100 µg/mL
MIC [3]: 8.3 µg/mL (≈ 12.8 µM)
MIC (P. acnes A 21933): 0.8 µg/mL (≈ 1.24 µM)
ED50 (E. coli Juhl [4]): 0.062 mg/kg
MIC (C. perfringens A9635): 0.4 µg/mL (≈ 0.618 µM)
MIC [5]: 0.019 µg/mL (≈ 0.0293 µM)
MIC (P. aeruginosa 9843A): 0.2 µg/mL (≈ 0.309 µM)
MIC (C. difficile A 21675): 50 µg/mL (≈ 77.2 µM)
MIC (B. fragilis A 22021): 0.2 µg/mL (≈ 0.309 µM)
MIC [6]: 0.022 µg/mL (≈ 0.034 µM)
MIC (B. fragilis A 22053): 0.8 µg/mL (≈ 1.24 µM)
MIC [7]: 0.17 µg/mL (≈ 0.262 µM)
MIC (B. fragilis A 22534): > 100 µg/mL
MIC (S. aureus Smith [8]): 12.5 µg/mL (≈ 19.3 µM)
MIC (B. fragilis CUH-108): 12.5 µg/mL (≈ 19.3 µM)
